Measured values reported in patent publication US10620112B2, “Measuring HIV reservoirs with optical scanning” (SRI INTERNATIONAL, priority 2015, dated 2020).

Test system: NL4-3 infected resting CD4+ T cells
Assay: Intracellular HIV Gag staining (flow cytometry) of resting CD4+ T cells directly infected with NL4-3, day 3 post-infection
Type: cell-based
Conditions: resting CD4+ T cells infected with NL4-3 by spinoculation, cultured in the presence of the compound, three days postinfection
Procedure: Quiescent CD4+ T cells in the G0/1a stage of the life cycle were enriched by depletion of lineage and activation markers (39, 40). Cells were infected with NL4-3 by spinoculation (32) and cultured in the absence of activating cytokines and in the presence of the protease inhibitor saquinavir (17, 39). dNs were added to infected cultures to overcome SAMHD1− mediated restriction that has been described in resting T cells (33, 41, 42). Three days postinfection cells were stained with LIVE/DEAD aqua and stained for surface markers with antibodies against CD3 (AF700), CD4 (PECy5.5), and CD25/CD69/HLA-DR (APC). Cells were then fixed, permeabilized and stained for HIV Gag. […] Consistent with our previous work, the cultured Gag+ cells lacked the activation markers CD25, CD69 and HLA-DR at day 3. […] The level of integrated HIV DNA was determined to be 0.32 copies per cell in the bulk culture (termed whole culture, WC). Gag+CD4− cells contained 1.2 HIV proviruses per cell, which represented an enrichment of integrated HIV DNA in Gag+CD4− cells compared to Gag− cell populations (Gag−CD4− cells contained 0.013 copies, Gag−CD4int cells contained 0.11 copies, and Gag− CD4+ cells contained 0.24 copies of integrated HIV DNA per cell).

## Cc1nnc(C(=O)NC(C)(C)c2nc(C(=O)NCc3ccc(F)cc3)c(O)c(=O)n2C)o1 [raltegravir]
  Gag staining of infected cells: very low Gag staining
